Measurements published in article PMC11471635, “Linkage of alternative exon assembly in Drosophila TrpA1 transcripts” (Molecules and Cells, 2024).

Experiments:
Assay in all cases: two-electrode voltage clamp, Xenopus oocytes
Assay type in all cases: cell-based
humTRPA1 = target: T1, humTRPA1 (Homo sapiens, UniProt O75762)
T1 construct: gene TRPA1; human TRPA1; cRNA-injected Xenopus laevis oocytes (electrophysiology as for insect TRPA1s)

agTRPA1(B) = target: T2, agTRPA1(B) (Anopheles gambiae, UniProt B3G3I7)
T2 construct: isoform with TRPA1(B)-type N-terminus and exon6a-encoded BAT; cRNA-injected Xenopus laevis oocytes
T2 sequence (B3G3I7 1-1248): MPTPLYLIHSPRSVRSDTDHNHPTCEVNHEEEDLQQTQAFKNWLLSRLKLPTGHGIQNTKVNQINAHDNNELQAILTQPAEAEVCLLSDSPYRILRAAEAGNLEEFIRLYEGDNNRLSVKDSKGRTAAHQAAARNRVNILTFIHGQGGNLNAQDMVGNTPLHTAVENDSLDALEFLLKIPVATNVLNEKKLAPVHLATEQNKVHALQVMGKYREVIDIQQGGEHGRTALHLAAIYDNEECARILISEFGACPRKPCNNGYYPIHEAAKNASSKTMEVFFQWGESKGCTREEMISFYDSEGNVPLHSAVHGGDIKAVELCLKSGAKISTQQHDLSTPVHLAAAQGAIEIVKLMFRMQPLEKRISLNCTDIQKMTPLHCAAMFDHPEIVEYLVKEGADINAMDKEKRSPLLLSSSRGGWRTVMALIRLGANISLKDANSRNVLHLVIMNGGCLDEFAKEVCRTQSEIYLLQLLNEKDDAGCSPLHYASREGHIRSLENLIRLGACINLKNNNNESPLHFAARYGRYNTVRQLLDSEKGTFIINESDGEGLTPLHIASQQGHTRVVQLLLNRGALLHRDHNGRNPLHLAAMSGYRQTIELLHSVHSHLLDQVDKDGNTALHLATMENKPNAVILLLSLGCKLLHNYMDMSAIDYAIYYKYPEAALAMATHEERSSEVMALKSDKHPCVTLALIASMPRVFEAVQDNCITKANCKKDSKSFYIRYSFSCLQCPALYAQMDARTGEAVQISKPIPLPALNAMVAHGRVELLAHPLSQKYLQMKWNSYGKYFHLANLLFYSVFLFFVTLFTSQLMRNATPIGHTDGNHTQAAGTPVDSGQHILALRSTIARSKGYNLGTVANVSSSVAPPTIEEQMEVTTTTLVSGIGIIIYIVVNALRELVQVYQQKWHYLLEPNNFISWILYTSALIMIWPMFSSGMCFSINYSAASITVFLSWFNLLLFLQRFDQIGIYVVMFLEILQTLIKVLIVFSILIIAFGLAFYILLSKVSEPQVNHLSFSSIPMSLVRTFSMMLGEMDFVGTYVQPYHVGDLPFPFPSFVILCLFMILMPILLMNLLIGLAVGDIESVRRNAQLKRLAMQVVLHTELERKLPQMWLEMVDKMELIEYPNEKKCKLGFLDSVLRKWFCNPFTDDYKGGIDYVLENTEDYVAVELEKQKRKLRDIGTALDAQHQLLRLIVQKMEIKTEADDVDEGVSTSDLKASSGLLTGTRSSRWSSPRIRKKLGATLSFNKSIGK

[1] = target: T3, TRPA1(A) (TRPA1(A)-exon10a) (Drosophila melanogaster, UniProt Q7Z020)
T3 construct: full-length isoform with exon1a-encoded N-terminus and exon10a-encoded BAT domain; cRNA-injected Xenopus laevis oocytes
T3 sequence (Q7Z020 1-1197): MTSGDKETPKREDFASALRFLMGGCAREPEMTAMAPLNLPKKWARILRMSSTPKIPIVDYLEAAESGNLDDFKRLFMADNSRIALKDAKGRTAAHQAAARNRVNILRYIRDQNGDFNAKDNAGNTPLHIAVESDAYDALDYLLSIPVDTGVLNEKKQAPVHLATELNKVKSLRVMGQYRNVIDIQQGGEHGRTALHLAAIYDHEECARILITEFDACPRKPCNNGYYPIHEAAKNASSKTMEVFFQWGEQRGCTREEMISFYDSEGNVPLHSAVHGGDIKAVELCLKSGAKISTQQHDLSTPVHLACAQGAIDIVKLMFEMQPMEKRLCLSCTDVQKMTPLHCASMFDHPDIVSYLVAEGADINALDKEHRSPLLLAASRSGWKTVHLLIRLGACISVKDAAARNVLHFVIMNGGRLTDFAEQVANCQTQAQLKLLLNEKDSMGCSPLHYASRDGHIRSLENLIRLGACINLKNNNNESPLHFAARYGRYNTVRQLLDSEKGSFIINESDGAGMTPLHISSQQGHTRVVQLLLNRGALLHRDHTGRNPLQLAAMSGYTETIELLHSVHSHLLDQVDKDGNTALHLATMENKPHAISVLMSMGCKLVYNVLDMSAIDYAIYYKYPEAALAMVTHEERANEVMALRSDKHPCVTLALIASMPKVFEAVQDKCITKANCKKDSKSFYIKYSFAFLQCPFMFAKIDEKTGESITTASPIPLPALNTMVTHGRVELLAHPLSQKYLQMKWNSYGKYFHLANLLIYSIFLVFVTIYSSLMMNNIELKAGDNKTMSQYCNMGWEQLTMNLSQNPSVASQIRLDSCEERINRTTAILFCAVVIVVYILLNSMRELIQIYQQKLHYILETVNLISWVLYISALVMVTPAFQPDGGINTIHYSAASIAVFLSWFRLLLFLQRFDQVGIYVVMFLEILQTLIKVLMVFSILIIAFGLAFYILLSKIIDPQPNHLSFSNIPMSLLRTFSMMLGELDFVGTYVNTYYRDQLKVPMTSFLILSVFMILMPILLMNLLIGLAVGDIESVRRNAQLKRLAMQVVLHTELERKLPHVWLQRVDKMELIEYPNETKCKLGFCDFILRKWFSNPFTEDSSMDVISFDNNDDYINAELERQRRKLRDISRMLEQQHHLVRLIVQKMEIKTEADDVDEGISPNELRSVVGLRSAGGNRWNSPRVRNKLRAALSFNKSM

agTRPA1(A) = target: T4, agTRPA1(A) (Anopheles gambiae, UniProt A0A1S4GN50)
T4 construct: isoform with TRPA1(A)-type N-terminus and exon6a-encoded BAT; cRNA-injected Xenopus laevis oocytes
T4 sequence (A0A1S4GN50 1-1208): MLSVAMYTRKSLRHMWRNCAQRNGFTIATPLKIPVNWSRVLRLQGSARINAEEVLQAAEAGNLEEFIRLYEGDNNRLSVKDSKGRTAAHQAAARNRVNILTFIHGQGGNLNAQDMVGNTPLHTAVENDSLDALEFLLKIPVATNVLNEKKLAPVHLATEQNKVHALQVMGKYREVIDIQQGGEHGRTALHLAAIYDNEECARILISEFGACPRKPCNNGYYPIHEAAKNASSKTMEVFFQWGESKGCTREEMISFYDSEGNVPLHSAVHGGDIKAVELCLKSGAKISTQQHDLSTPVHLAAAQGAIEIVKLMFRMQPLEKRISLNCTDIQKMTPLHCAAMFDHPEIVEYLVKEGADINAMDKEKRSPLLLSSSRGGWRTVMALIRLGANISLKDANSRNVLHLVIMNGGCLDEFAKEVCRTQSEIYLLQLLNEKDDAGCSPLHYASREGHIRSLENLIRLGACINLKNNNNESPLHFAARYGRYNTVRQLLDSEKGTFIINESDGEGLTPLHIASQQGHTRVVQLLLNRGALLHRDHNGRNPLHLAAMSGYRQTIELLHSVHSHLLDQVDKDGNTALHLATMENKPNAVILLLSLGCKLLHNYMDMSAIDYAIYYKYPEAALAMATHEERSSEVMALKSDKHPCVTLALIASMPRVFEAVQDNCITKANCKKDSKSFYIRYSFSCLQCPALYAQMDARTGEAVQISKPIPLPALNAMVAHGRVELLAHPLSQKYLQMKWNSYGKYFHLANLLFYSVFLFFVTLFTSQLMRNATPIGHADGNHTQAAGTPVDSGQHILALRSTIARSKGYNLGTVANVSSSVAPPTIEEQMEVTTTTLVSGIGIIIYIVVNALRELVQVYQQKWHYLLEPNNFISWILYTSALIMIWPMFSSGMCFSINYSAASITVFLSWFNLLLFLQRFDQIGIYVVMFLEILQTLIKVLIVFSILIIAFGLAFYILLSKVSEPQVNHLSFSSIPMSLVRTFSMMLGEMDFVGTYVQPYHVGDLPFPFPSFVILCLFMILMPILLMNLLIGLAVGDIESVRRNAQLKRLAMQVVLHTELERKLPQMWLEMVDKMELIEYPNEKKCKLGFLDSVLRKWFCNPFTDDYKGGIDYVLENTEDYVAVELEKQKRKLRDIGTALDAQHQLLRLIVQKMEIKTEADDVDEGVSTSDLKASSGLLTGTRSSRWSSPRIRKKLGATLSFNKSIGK

T1 sequence (O75762 whole entry): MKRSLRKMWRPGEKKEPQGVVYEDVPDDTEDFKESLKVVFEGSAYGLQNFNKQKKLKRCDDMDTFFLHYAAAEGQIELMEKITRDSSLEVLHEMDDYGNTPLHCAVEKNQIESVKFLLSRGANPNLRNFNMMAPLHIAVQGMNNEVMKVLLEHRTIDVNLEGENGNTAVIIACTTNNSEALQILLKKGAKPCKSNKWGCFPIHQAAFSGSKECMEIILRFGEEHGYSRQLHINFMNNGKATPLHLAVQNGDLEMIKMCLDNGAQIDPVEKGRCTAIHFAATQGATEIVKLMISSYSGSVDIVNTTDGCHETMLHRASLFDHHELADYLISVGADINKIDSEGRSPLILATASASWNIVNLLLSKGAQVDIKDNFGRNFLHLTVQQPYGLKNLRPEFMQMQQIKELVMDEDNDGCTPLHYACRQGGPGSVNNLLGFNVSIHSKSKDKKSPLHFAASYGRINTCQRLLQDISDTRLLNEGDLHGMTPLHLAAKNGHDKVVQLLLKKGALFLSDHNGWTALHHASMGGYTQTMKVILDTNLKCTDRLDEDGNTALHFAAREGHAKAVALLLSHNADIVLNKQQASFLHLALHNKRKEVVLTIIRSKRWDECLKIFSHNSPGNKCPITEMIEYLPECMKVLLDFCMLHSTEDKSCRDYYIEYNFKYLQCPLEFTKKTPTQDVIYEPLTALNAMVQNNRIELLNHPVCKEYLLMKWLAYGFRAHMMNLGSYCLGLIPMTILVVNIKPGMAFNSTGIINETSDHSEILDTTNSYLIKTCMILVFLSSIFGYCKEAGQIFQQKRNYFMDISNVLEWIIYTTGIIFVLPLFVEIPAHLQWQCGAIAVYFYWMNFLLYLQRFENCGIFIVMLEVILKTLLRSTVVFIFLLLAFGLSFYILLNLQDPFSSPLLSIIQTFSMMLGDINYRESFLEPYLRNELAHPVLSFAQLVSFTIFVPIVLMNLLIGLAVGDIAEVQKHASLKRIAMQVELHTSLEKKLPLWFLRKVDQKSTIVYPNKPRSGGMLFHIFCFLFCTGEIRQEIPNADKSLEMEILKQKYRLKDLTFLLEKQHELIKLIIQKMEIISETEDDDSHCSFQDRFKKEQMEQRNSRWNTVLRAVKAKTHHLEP

Compound CN1C(=O)C=CC1=O [N-methyl maleimide] has an EC50 (humTRPA1) of 5.1 ± 0.5 µM, an EC50 (agTRPA1(B)) of 39.5 ± 1.1 µM and an EC50 [1] of 13.6 ± 0.6 µM. The EC50 (agTRPA1(A)) was 43.8 ± 3.9 µM.
